Measured values: patent US7410797B2, “Meningeal-derived stem cells” (priority 2002, dated 2008)

Key:
Cells from the meninges = experiment: Neural differentiation of meningeal-derived stem cells in induction media; format: cell-based; conditions: for effect on neural differentiation compared with dexamethasone: used as substitutes for dexamethasone
Method: Cells from the meninges that are allowed to become 70% confluent (FIG. 2A) are susceptible to differentiating into nerve under two conditions: antioxidant treatment and steroid hormone treatment. […] This can also be achieved with other antioxidants (i.e., reducing agents), such as butylated hydroxyanisole (BHA) (approximately 200 μM), dithiothreitol (DTT; i.e., Cleland's reagent), as well as dithioerythritol, tributylphosphine, iodoacetamide, tris-phosphine HCl, deoxythymidine-triphosphate trilithium salt, diethylthiatricarbocyanine perchlorate, diethylthiatricarbocyanine iodide and DECROLINE D (available from BASF Corporation; Mount Olive, N.J.; generic name zinc formaldehyde sulfoxylate). These conditions are similar to those used to differentiate bone marrow-derived stem cells and adipose-derived stem cells (D. Woodbury et al., “Adult rat and human bone marrow stromal cells differentiate into neurons,” J. Neuroscience Res., 61(4):364-70 (2000)). The cells that form have a bipolar morphology and express nerve-specific markers.
The cells differentiate into what are morphologically distinct subsets of neurons when exposed to small concentrations (e.g, 100 nM) of dexamethasone; a steroid hormone.
These may therefore be used as substitutes for dexamethasone. Other steroids that may be used in accordance with this embodiment of the present invention include pregnenolone, aldosterone, testosterone, estradiol and cortisol.

Dural cells = experiment: Osseous differentiation of dural cells plated on substrate (alkaline phosphatase staining); format: cell-based; conditions: substrate 100 μg/cm^2
Method: Dural cells were forced to adopt a bony phenotype by two separate methods. The first included plating these cells on a MATRIGEL or laminin substrate (100 μg/cm^2).

Molecule	effect on neural differentiation compared with dexamethasone (Cells from the meninges)	also measured
C=C1/C(=C\C=C2/CCC[C@]3(C)[C@@H]([C@H](C)CCCC(C)(C)O)CC[C@@H]23)C[C@@H](O)C[C@@H]1O [1,25-dihydroxy vitamin D3]	elicited similar effects to dexamethasone	–
CC1=C(/C=C/C(C)=C/C=C/C(C)=C/C=O)C(C)(C)CCC1 [retinaldehyde]	elicited similar effects to dexamethasone	–
CC1=C(/C=C/C(C)=C/C=C/C(C)=C/CO)C(C)(C)CCC1 [retinol]	elicited similar effects to dexamethasone	–
OCCS [β-mercaptoethanol]	–	differentiation into neural-like cells (Cells from the meninges; pre-induction media with 1 mM β-mercaptoethanol for 24 hours, then induction media DMEM, 5 mM β-mercaptoethanol, cells 70% confluent): differentiate into neural-like cells within six hours
laminin	–	expression of alkaline phosphatase (differentiated bone marker) (Dural cells): expressed alkaline phosphatase (a differentiated bone marker) within seven days
vitamin A	elicited similar effects to dexamethasone	–
